Experimental findings from US6541423B1, “4-(3′,4′-heterocyclyl benzoyl) pyrazoles as herbicidal agents” (BASF Aktiengesellschaft, priority 1999, dated 2003) are described below.

In series [1] the test system is CHEAL. Description: greenhouse post-emergence herbicidal test. Format: in vivo, lambsquarters (goosefoot). From the text:
(§1) The culture containers used were plastic flowerpots containing loamy sand with approximately 3.0% of humus as substrate. The seeds of the test plants were sown separately for each species. For the post-emergence treatment, the test plants were first grown to a plant height of from 3 to 15 cm, depending on the plant habit, and only then treated with the active ingredients which had been suspended or emulsified in water. To this end, the test plants were either sown directly and grown in the same containers, or they were first grown separately as seedlings and transplanted into the test containers a few days prior to treatment. […] Depending on the species, the plants were kept at from 10 to 25° C., or 20-35° C., respectively. The test period extended over 2 to 4 weeks. During this time, the plants were tended, and their response to the individual treatments was evaluated. Evaluation was carried out using a scale of from 0 to 100. 100 means no emergence of the plants, or complete destruction of at least the aerial parts, and 0 means no damage, or normal course of growth. [table]

For series [2], the system named is AVEFA. Description: greenhouse post-emergence herbicidal test. Format: in vivo, wild oats.
Description: as §1

In series [3] the test system is SOLNI. Description: greenhouse post-emergence herbicidal test. Format: in vivo, black nightshade.
Description: as §1

For series [4], the system named is GALAP. The experiment in a line: greenhouse post-emergence herbicidal test. Format: in vivo, catchweed bedstraw. The settings on record: application rates 0.5 and 0.25 kg/ha (a.s.). The source says: The culture containers used were plastic flowerpots containing loamy sand with approximately 3.0% of humus as substrate. The seeds of the test plants were sown separately for each species. For the post-emergence treatment, the test plants were first grown to a plant height of from 3 to 15 cm, depending on the plant habit, and only then treated with the active ingredients which had been suspended or emulsified in water. To this end, the test plants were either sown directly and grown in the same containers, or they were first grown separately as seedlings and transplanted into the test containers a few days prior to treatment. The rate of application for the post-emergence treatment was 0.5 or 0.25 kg of a.s. (active. substance)/ha. Depending on the species, the plants were kept at from 10 to 25° C., or 20-35° C., respectively. The test period extended over 2 to 4 weeks. During this time, the plants were tended, and their response to the individual treatments was evaluated. Evaluation was carried out using a scale of from 0 to 100. 100 means no emergence of the plants, or complete destruction of at least the aerial parts, and 0 means no damage, or normal course of growth. [table]

The subject of series [5] is POLPE. Description: greenhouse post-emergence herbicidal test. Format: in vivo, ladysthumb.
Description: as §1

In series [6] the test system is LAMAM. The experiment in a line: greenhouse post-emergence herbicidal test. Format: in vivo, henbit.
Description: as §1

Series [7] deals with STEME. The experiment in a line: greenhouse post-emergence herbicidal test. Format: in vivo, common chickweed.
Description: as §1

Series [8] deals with THLAR. Description: greenhouse post-emergence herbicidal test. The format is in vivo, fanweed.
Description: as §1

Series [9] relates to PAPRH. Description: greenhouse post-emergence herbicidal test. The format is in vivo, corn poppy.
Description: as §1

Series [10] has as its system wheat. Description: greenhouse post-emergence test, crop selectivity. The format is in vivo, spring wheat. The settings on record: application rates 0.125 and 0.0625 kg/ha.
Description: as §1

Series [11] deals with EPHHL. The experiment in a line: greenhouse post-emergence herbicidal test. The format is in vivo, spurge.
Description: as §1

Series [12] deals with MYOAR. The experiment in a line: greenhouse post-emergence herbicidal test. Format: in vivo, forget-me-not.
Description: as §1

Series [13] relates to GASPA. The experiment in a line: greenhouse post-emergence herbicidal test. The format is in vivo, smallflower. The conditions noted are these: application rates 0.125 and 0.0625 kg/ha.
Description: as §1

In series [14] the test system is ECHCG. The experiment in a line: greenhouse post-emergence herbicidal test. The format is in vivo, barnyard grass.
Description: as §1

Series [15] deals with AMARE. The experiment in a line: greenhouse post-emergence herbicidal test. Format: in vivo, redroot pigweed.
Description: as §1

Where [16] appears, read: application rates 0.5 and 0.25 kg/ha (a.s.).
[17] abbreviates: application rates 0.25 and 0.125 kg/ha.
Setting [18] is: application rates 0.125 and 0.0625 kg/ha.
The mark [19] stands for this setting: application rates 0.5 and 0.25 kg/ha.

Structures are written as SMILES.

As a reminder, the melting point is the temperature of the solid-liquid transition. In turn, `Cc1c(C(=O)c2cnn(C)c2O)ccc2scnc12` [Example 1, 4-[4′-Methylbenzothiazol-5′-ylcarbonyl]-5-hydroxy-1-methylpyrazole] displayed a melting point of 149 to 150 °C. Further, the “herbicidal action against CHEAL” value in series [1] (setting [16]) is recorded as “very good herbicidal action”. Moreover, the “herbicidal action against AVEFA” value in series [2] (setting [16]) is “very good herbicidal action”. For the same molecule, in series [3] (setting [16]), the “herbicidal action against SOLNI” value is recorded as “very good herbicidal action”. Also, the “herbicidal action against GALAP” value in [4] is given as “very good herbicidal action”. Also, the “herbicidal action against POLPE” value in series [5] (setting [16]) is listed as “very good herbicidal action”.
As to `Cc1c(C(=O)c2cnn(C(C)C)c2O)ccc2scnc12` [Example 12, 4-(4′-methylbenzothiazol-5′-ylcarbonyl)-5-hydroxy-1-isopropylpyrazole], in [6] (setting [17]), the “herbicidal action against LAMAM” value is “very good herbicidal action”. The “herbicidal action against CHEAL” value in [1] (setting [17]) is “very good herbicidal action”. Further, the “herbicidal action against STEME” value in [7] (setting [17]) is reported as “very good herbicidal action”. In addition, in series [8] (setting [17]), the “herbicidal action against THLAR” value is listed as “very good herbicidal action”. Besides, in series [9] (setting [17]), the “herbicidal action against PAPRH” value is “very good herbicidal action”.
For `Cc1c(C(=O)c2cnn(C)c2OCc2ccccc2)ccc2scnc12` [Example 13, 4-(4′-methylbenzothiazol-5′-ylcarbonyl)-5-benzyloxy-1-methylpyrazole], the selectivity in wheat result in series [10] is reported as “selectivity in wheat”. Further, in series [11] (setting [18]), the “herbicidal action against EPHHL” value is “very good herbicidal action”. Also, in series [1] (setting [18]), the “herbicidal action against CHEAL” value was “very good herbicidal action”. In addition, in [3] (setting [18]), the “herbicidal action against SOLNI” value is listed as “very good herbicidal action”. For the same molecule, the “herbicidal action against MYOAR” value in series [12] (setting [18]) is reported as “very good herbicidal action”. Also, the “herbicidal action against PAPRH” value in series [9] (setting [18]) is on record as “very good herbicidal action”.
On to `Cc1nc2c(C)c(C(=O)c3cnn(C)c3O)ccc2s1` [Example 14, 4-(2′,4′-dimethylbenzothiazol-5′-ylcarbonyl)-5-hydroxy-1-methylpyrazole], for which the “herbicidal action against LAMAM” value in series [6] (setting [18]) is given as “very good herbicidal action”. Besides, the “herbicidal action against GASPA” value in [13] was “very good herbicidal action”. The “herbicidal action against STEME” value in series [7] (setting [18]) is on record as “very good herbicidal action”. In series [8] (setting [18]), the “herbicidal action against THLAR” value is “very good herbicidal action”.
With `Cc1c(C(=O)c2cnn(C)c2OC(=O)c2ccccc2)ccc2scnc12` [Example 15, 4-(4′-methylbenzothiazol-5′-ylcarbonyl)-5-benzoyloxy-1-methylpyrazole], the “herbicidal action against ECHCG” value in [14] (setting [17]) was “very good herbicidal action”. Besides, the “herbicidal action against CHEAL” value in [1] (setting [17]) is “very good herbicidal action”. For the same molecule, the “herbicidal action against AMARE” value in series [15] (setting [17]) is on record as “very good herbicidal action”. The “herbicidal action against AVEFA” value in [2] (setting [17]) is on record as “very good herbicidal action”. In addition, the “herbicidal action against POLPE” value in series [5] (setting [17]) is recorded as “very good herbicidal action”.
Take `Cc1c(C(=O)c2cnn(C)c2OC(=O)c2cccc(F)c2)ccc2scnc12` [Example 16, 4-(4′-methylbenzothiazol-5′-ylcarbonyl)-5-(3″-fluorobenzoyl)oxy-1-methylpyrazole]: the “herbicidal action against ECHCG” value in series [14] (setting [19]) is reported as “very good herbicidal action”. In addition, the “herbicidal action against CHEAL” value in series [1] (setting [16]) is “very good herbicidal action”. Also, the “herbicidal action against AMARE” value in [15] (setting [19]) was “very good herbicidal action”. For the same molecule, in [4], the “herbicidal action against GALAP” value is given as “very good herbicidal action”. Moreover, the “herbicidal action against POLPE” value in [5] (setting [16]) is “very good herbicidal action”.
Turning to `Cc1c(C(=O)c2cnn(C)c2OC(=O)C2CC2)ccc2scnc12` [Example 18, 4-(4′-methylbenzothiazol-5′-ylcarbonyl)-5-cyclopropylcarbonyloxy-1-methylpyrazole], the “herbicidal action against ECHCG” value in series [14] (setting [17]) was “very good herbicidal action”. Besides, the “herbicidal action against CHEAL” value in [1] (setting [17]) is given as “very good herbicidal action”. Further, the “herbicidal action against AMARE” value in series [15] (setting [17]) is given as “very good herbicidal action”. Also, the “herbicidal action against AVEFA” value in series [2] (setting [17]) is reported as “very good herbicidal action”. In series [5] (setting [17]), the “herbicidal action against POLPE” value was “very good herbicidal action”.
Take `CCc1nc2c(C)c(C(=O)c3cnn(C)c3O)ccc2o1` [Example 30, 4-(2′-ethyl-4′-methylbenzoxazol-5′-ylcarbonyl)-5-hydroxy-1-methylpyrazole]: the “herbicidal action against LAMAM” value in series [6] (setting [17]) is on record as “very good herbicidal action”. Besides, in series [1] (setting [17]), the “herbicidal action against CHEAL” value is “very good herbicidal action”. Moreover, the “herbicidal action against THLAR” value in [8] (setting [17]) is given as “very good herbicidal action”. The “herbicidal action against POLPE” value in series [5] (setting [17]) is on record as “very good herbicidal action”. Moreover, the “herbicidal action against PAPRH” value in [9] (setting [17]) was “very good herbicidal action”.
Consider `CCc1nc2c(C)c(C(=O)c3cnn(C(C)C)c3O)ccc2o1` [Example 31, 4-(2′-ethyl-4′-methylbenzoxazol-5′-ylcarbonyl)-5-hydroxy-1-isopropylpyrazole], for which, in series [6] (setting [17]), the “herbicidal action against LAMAM” value is “very good herbicidal action”. Also, the “herbicidal action against CHEAL” value in [1] (setting [17]) is on record as “very good herbicidal action”. Besides, the “herbicidal action against AMARE” value in series [15] (setting [17]) is reported as “very good herbicidal action”. In [8] (setting [17]), the “herbicidal action against THLAR” value is reported as “very good herbicidal action”. In series [5] (setting [17]), the “herbicidal action against POLPE” value is “very good herbicidal action”. For the same molecule, in series [9] (setting [17]), the “herbicidal action against PAPRH” value is listed as “very good herbicidal action”.
For `Cc1nc2c(C)c(C(=O)c3cnn(C(C)C)c3O)ccc2s1` [Example 33, 4-(2′,4′-dimethylbenzothiazol-5′-ylcarbonyl)-5-hydroxy-1-isopropylpyrazole], the “herbicidal action against LAMAM” value in series [6] (setting [17]) is “very good herbicidal action”. The “herbicidal action against CHEAL” value in series [1] (setting [17]) is recorded as “very good herbicidal action”. The “herbicidal action against AMARE” value in series [15] (setting [17]) is “very good herbicidal action”. Moreover, the “herbicidal action against MYOAR” value in series [12] (setting [17]) is “very good herbicidal action”. In series [8] (setting [17]), the “herbicidal action against THLAR” value is given as “very good herbicidal action”. In [9] (setting [17]), the “herbicidal action against PAPRH” value was “very good herbicidal action”.
Turning to `COCc1nc2c(C)c(C(=O)c3cnn(C)c3O)ccc2s1` [Example 34, 4-(2′-methoxymethyl-4′-methylbenzothiazol-5′-ylcarbonyl)-5-hydroxy-1-methylpyrazole], the “herbicidal action against LAMAM” value in [6] (setting [17]) is on record as “very good herbicidal action”. In series [1] (setting [17]), the “herbicidal action against CHEAL” value is listed as “very good herbicidal action”. In addition, the “herbicidal action against STEME” value in [7] (setting [17]) is “very good herbicidal action”. For the same molecule, the “herbicidal action against THLAR” value in series [8] (setting [17]) is recorded as “very good herbicidal action”. Besides, the “herbicidal action against PAPRH” value in [9] (setting [17]) is “very good herbicidal action”.
On to `COCc1nc2c(C)c(C(=O)c3cnn(C(C)C)c3O)ccc2s1` [Example 36, 4-(2′-methoxymethyl-4′-methylbenzothiazol-5′-ylcarbonyl)-5-hydroxy-1-isopropylpyrazole], for which the “herbicidal action against EPHHL” value in series [11] (setting [17]) is “very good herbicidal action”. For the same molecule, the “herbicidal action against CHEAL” value in series [1] (setting [17]) was “very good herbicidal action”. For the same molecule, the “herbicidal action against STEME” value in series [7] (setting [17]) is “very good herbicidal action”. In addition, the “herbicidal action against SOLNI” value in series [3] (setting [17]) is listed as “very good herbicidal action”. The “herbicidal action against MYOAR” value in [12] (setting [17]) is reported as “very good herbicidal action”. For the same molecule, the “herbicidal action against PAPRH” value in [9] (setting [17]) is given as “very good herbicidal action”.
